Results on one compound are retold here after patent US6001880A, “Alkylenediamine derivative, anti-ulcer drug, and antibacterial drug” (Shiseido Co., Ltd., priority 1997, dated 1999).

Each structure is given as a SMILES string.

The test system of series [1] is Helicobacter pyroli (HP NCTC 11637). The experiment in a line: AHP: Antibacterial Activity Test Against Helicobacter pyroli (agar dilution). It is filed as cell-based, Helicobacter pyroli NCTC 11637. Conditions: MIC 100 μg/ml or more; colony number vs control plate, 250 mM solution of sample compound. As to the method: AHP: Antibacterial Activity Test Against Helicobacter pyroli The minimum inhibitory concentration (MIC) against Helicobacter pyroli (microacrophilic gram-negative bacterium which is supposed to deeply involve in pathogenesis, relapse, and recrudescence of ulcer, referred to as "HP" in the following) is measured so as to find out compounds which have antibacterial activity against Helicobacter pyroli. MICs were determined by the agar dilution method. The stock culture (-80° C.) of HP NCTC 11637 was thawed and cultured on tripticase soy agar supplemented with 5% sheep blood at 37° C. in an atmosphere of 5% O2, 10% CO2, and 85% N2. Grown colonies were transferred to the same plate and precultured for 3 days under the same condition. […] An appropriate amount of the colony grown on the plate by preculturing was suspended in Mueller Hinton broth till turbidness was recognizable by naked eyes, thereby yielding a bacterial suspension concentrate containing about 10^7 cfu/ml. […] 10 μl of the bacterial suspension for inoculation (about 10^3 cfu) was dropped by dispenser onto an MIC plate for inoculation and cultured for 7 days under the same condition as that of preculture. Thereafter, it was judged whether there had been bacteria growth or not. […] As the result of the comparison of these plates, when the number of the colony on the plate containing the sample compound was less than 90% with respect to that on the control plate, it was represented by "+". Contrary to this, when there was 90% or more, it was represented by "-".

For series [2], the system named is stress ulcer formation in rats. Description: WIS: Restraint and Water Immersion Stress-Induced Ulcer Inhibition Test. It is filed as in vivo, rat (male Crj:SD or Slc:SD). Particulars: 100 mg/kg oral, 10 minutes before 7 h restraint and water immersion (21° C.). Put shortly: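 Overnight-fasted male SD rats (6–7 weeks, n=5–8) dosed orally at 100 mg/kg in 0.3% CMC-Na or 0.05% Tween 80; 10 min later restrained and immersed to xiphoid in 21° C water for 7 h. Ulcer index is summed glandular erosion length; inhibition % = (1 − UI sample/UI control).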

For series [3], the system named is isolated gastric fundic gland. The experiment in a line: CAP: Acid Secretion Inhibition Test In Vitro ([14C]-aminopyrine uptake). Conditions: Oryctolagus cuniculus; final concentration 10^-5 M; histamine 10^-5 M stimulation; read-out: CAP: acid secretion inhibitory rate. It is filed as cell-based, rabbit (male Japanese White). Put shortly: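 Collagenase-isolated rabbit gastric fundic glands (1.6×10^6 cells/ml) were stimulated with 10^-5 M histamine in the presence of test compound and [14C]-aminopyrine, then shaken 40 min at 37 °C. Pellet versus supernatant radioactivity, corrected with a 20 mM NaSCN sample, gives specific aminopyrine accumulation as the acid-secretion index; duplicates.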

In the next series the test system is mice. On the set-up: species or system mouse (male Slc:ICR). Conditions: mouse, in vivo. The procedure: AT: Single Dose Toxicity Pretest
Male Slc:ICR mice (5-week-old) were used. Each group has 3 to 5 mice and each mouse was fasted, but allowed free access to water, for 4 to 5 hours from 9 a.m. in the test day. Then, 2,000 mg/10 ml/kg of the sample compound dissolved or suspended in an aqueous solution of 0.5% sodium carboxymethyl cellulose was orally administered thereto. To a control, only the vehicle was administered. […] The body weight was measured before and after the fasting as well as at the same time everyday. The dead animals were immediately subjected to autopsy and their organs were observed by naked eyes. Also, the living animals were sacrificed with ether or carbon dioxide one week after the administration and then their organs were observed by naked eyes.
The toxicity at the single dose of 2,000 mg/kg of the sample compound was expressed as being classified into 5 levels.
5: mortality rate is 0%; no toxicity is found at all both in behavior and organs.
4: Mortality rate is 0%; while no toxicity is found in organs, slight toxicity is observed in behavior or body weight increase.
3: While there is a dead animal (though not all the animals are dead), no toxicity is found in organs.
2: Regardless of whether there is a dead animal or not, toxicity is found in organs.
1: All the animals are dead.

Turning to `CC(C)=CCC/C(C)=C/COc1ccc(C(=O)NCCN(C(C)C)C(C)C)cc1` [Example 7], in series [1], the “AHP: growth class where MIC was 100 μg/ml or more” value is given as “+ (the number of the colony on the plate containing the sample compound was less than 90% with respect to that on the control plate)”. Moreover, the “WIS: ulcer formation inhibitory rate” value in series [2] was found to be 84%. In addition, the inhibition at 10 µM in series [3] amounted to 100%. Besides, in the series with mice, the “AT: single dose toxicity level” value was determined as 5.
